{"source": "patent US11421001B2", "about": "“Template-fixed peptidomimetics” (UNIVERSITAET ZUERICH, priority 2007, dated 2022)", "key": {"[1]": {"target": "T1, human CXCR4 (Homo sapiens, UniProt P61073)", "T1 construct": "expressed in transfected cells; host or cells: mouse pre-B cell line 300-19", "T1 sequence (P61073 whole entry)": "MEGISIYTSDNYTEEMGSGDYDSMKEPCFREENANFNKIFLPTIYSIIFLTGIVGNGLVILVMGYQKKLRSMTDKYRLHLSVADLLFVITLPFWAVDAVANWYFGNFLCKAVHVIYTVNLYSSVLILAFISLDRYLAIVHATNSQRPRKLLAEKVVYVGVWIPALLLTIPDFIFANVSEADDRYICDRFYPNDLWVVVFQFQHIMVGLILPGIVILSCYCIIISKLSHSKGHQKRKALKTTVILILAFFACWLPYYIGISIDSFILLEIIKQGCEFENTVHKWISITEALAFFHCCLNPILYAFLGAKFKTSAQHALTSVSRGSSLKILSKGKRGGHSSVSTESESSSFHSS", "assay": "Ca2+ assay: CXCR4-antagonizing activity", "assay_type": "cell-based", "conditions": "mouse pre-B cell line 300-19 transfected with human CXCR4; calcium mobilization induced by 10 nM SDF-1; read-out: IC50 (nM) Ca2+ assay", "method": "2.2. Ca^2+− Assay: CXCR4-Antagonizing Activity of the Peptides.\nIncreases in intracellular calcium were monitored using a Flexstation 384 (Molecular Devices, Sunnyvale, Calif.) to assay the peptides for CXCR4 antagonism in a mouse pre-B cell line 300-19 stably transfected with human CXCR4 [see references 1, 2 and 3, below]. The cells were batch loaded with the Calcium 3 Assay kit (Molecular Devices) in assay buffer (Hanks Balanced salt solution, HBSS, 20 mM HEPES, pH 7.4, 0.1% BSA) for 1 h at room temperature and then 200,000 labeled cells were dispensed into black 96 well assays plates (Costar No. 3603). A 20-fold concentrated solution of peptide in assay buffer was added to the cells and the whole plate was centrifuged to settle the cells to the bottom of the wells. Calcium mobilization induced by 10 nM stromal-derived factor-1 (SDF-1) was measured in the Flexstation 384 (excitation, 485 […]) for 90 seconds. A maximal change in fluorescence response above baseline was used to calculate antagonist activity. The data for dose response curves (antagonist concentration versus % maximum response) were fitted to a four parameter logistic equation using SoftmaxPro 4.6 (Molecular Devices), from which IC50% values were calculated."}, "[2]": {"assay": "FIGS-Assay", "assay_type": "cell-based", "conditions": "48 hours of co-cultivation; ONPG read out at 405 nm", "method": "The assay was performed according to ref. 5, below. Stock dilutions of the peptides (10 μM) were prepared by dissolving in […] at room temperature. Stock solutions were kept at +4° C., light protected. Working dilutions were prepared extemporaneously by serial dilution in Phosphate Buffered Saline (PBS) and added in a final volume of 10 μl directly to the cell cultures. After 48 hours of co-cultivation the cultures were rinsed with PBS and then exposed to glutaraldehyde/formaldehyde (0.2%/2%) in PBS for five minutes. For photometric quantification the fixed cultures were subsequently incubated with ortho-nitro-phenyl-galactopyranoside (ONPG) as a β-galactosidase substrate, which was enzymatically converted into the chromophore ortho-nitrophenol (ONP). The read out is directly obtained by measuring optical density of wells at 405 nm in an iEMS 96well-plate reader.\n‘CCR5’ cells were cultured in DMEM medium with […] glucose, 10% fetal bovine serum (FBS), supplemented with 50 U/ml Penicillin and 50 μg/ml Streptomycin (Pen/Strept.). Hut/4-3 cells were maintained in RPMI medium, 10% FBS, supplemented with Pen/Strept. and 10 mM HEPES. HELA cells and CCRF-CEM cells were maintained in RPMI1640 plus 5% FBS, Pen/Strept and 2 mM L-Glutamine. Cos-7 cells were grown in DMEM medium with […] glucose supplemented with 10% FCS, Pen/Strept. and 2 mM L-Glutamine. […]"}, "[3]": {"tested_on": "hematopoietic progenitors (CFU-GM)", "assay": "Stem cell mobilisation, mice model (CFU-GM)", "assay_type": "in vivo, mouse", "conditions": "C3H/HeJ mice, 5 mg/kg s.c.", "source_text": "The aim of the study was to evaluate the ability of the compound of Example 1 and Example 2 to mobilize hematopoietic progenitors from mouse bone marrow to peripheral blood using in-vitro hematopoietic colony assays. In humans, accurate information about progenitor cell mobilization is provided by the colony forming unit granulocyte-monocyte (CFU-GM) assay or by determining the abundance of CD34(+) cells by FACS analysis (see ref. 10 below). In mice, CD34 is not a useful marker for stem cells; instead the CFU-GM is more commonly used (see ref. 11 below).\nIn order to assess the ability of the compounds of Example 1 and Example 2 to mobilize murine stem cells (CFU-GM) C3H/HeJ female mice (Jackson Laboratory) were injected s.c. with 5 mg/k, of the compounds of Example 1 and of Example 2 and as reference AMD3100 (Broxmeyer, et al, J Exp Med 201, 1307-1318), (currently undergoing Phase III clinical trials) for stem cell mobilisation. Peripheral blood samples from 5 animals per test group were collected at each time point and nucleated cell counts performed as standard assays."}}, "note": "pIC50: −log10 of the molar value. Positions of bridges follow the written chain, without caps; N, C: chain ends. Non-standard residues stand in square brackets, D forms with d. Residues, ends and D or L forms follow the SMILES beside them. Dab = NCC[C@H](N)C(=O)O"}
{"smiles": "C[C@@H]1NC(=O)[C@H](CO)NC(=O)[C@@H]2CSSC[C@H](NC(=O)[C@H](Cc3ccc(O)cc3)NC(=O)[C@H](CCCNC(=N)N)NC(=O)[C@H](CCN)NC(=O)[C@H]3CCCN3C1=O)C(=O)N[C@@H](Cc1ccc(O)cc1)C(=O)N[C@@H](CCC(N)=O)C(=O)N[C@@H](CCCCN)C(=O)N1CCC[C@@H]1C(=O)N1CCC[C@H]1C(=O)N[C@@H](Cc1ccc(O)cc1)C(=O)N[C@@H](Cc1c[nH]cn1)C(=O)N[C@@H](Cc1ccc(O)cc1)C(=O)N2", "note": "[Example 2] (cyclo(YHYCSA[dP][Dab]RYCYQK[dP]P); disulfide 4-11)", "values": [{"measurement": "IC50", "setting": "[1]", "result": 4.1, "unit": "nM"}, {"measurement": "pIC50", "setting": "[2]", "result": 7.61}, {"measurement": "time of maximal effect on CFU-GM blood cell numbers", "setting": "[3]", "result": 240, "unit": "min"}, {"measurement": "effect on CFU-GM blood cell numbers / progenitors over time", "setting": "[3]; compared to control mice", "result": "increased the CFU-GM blood cell numbers up to six hours post administration"}]}
